From PMC4207660, “Identification and Characterization of Hundreds of Potent and Selective Inhibitors of Trypanosoma brucei Growth from a Kinase-Targeted Library Screening Campaign” (PLoS Neglected Tropical Diseases, 2014) come the findings set out here.

Some results are limits rather than exact numbers.

The target in the test is BTK (Homo sapiens, UniProt Q06187). As to the kind of experiment: Human kinase selectivity screening: BTK. The test is classed as biochemical. Conditions: read-out: BTK pIC50 values (converted). An excerpt: These kinases were chosen for general selectivity screening owing to their broad representation of the human kinome.
Chain of BTK (Q06187 whole entry): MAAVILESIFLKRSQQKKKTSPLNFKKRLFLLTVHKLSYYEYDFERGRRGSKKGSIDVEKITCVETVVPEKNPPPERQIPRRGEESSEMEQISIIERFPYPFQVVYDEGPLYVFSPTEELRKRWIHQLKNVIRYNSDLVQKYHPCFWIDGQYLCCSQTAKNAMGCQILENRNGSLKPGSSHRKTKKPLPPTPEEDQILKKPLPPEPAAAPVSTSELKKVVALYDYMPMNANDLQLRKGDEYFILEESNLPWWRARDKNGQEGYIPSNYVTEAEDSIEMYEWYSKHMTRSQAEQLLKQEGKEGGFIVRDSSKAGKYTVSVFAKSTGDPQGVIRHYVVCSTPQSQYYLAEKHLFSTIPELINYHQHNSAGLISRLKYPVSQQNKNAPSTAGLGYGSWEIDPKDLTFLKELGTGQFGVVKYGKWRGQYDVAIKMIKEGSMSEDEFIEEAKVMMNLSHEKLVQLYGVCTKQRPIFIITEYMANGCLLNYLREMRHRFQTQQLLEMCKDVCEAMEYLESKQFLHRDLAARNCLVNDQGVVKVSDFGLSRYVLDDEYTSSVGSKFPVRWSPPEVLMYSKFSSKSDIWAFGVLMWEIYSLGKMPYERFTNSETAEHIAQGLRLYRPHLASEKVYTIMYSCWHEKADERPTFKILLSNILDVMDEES

Regarding `CN(C)Cc1ccc(-c2[nH]c3ncc(C#N)cc3c2-c2ccccc2)cc1` [NEU-0001206], the IC50 is 316 nM.

As to `CCCCc1nc(Nc2cccc(C)c2)c2c(=O)[nH]ccc2n1` [NEU-0001191], the IC50 was greater than 25100 nM. In the case of `CCCNc1nc(Nc2cnn(C)c2)c2c(=O)[nH]ccc2n1` [NEU-0001187] it was 200 nM; in that of `Cc1cc(Nc2cc(C3CC3)[nH]n2)nc(N2CCCCC2)n1` [NEU-0001127], 5010 nM; in that of `O=S1(=O)Cc2ccc(Nc3nccc(-c4ccc(F)cc4)n3)cc2C1` [NEU-0001142], 20000 nM. Consider `O=C(Nc1ccc(-c2ccnc3[nH]ccc23)s1)C1(Cc2ccccc2)CCCNC1` (stereo not shown) [NEU-0001240], for which the IC50 was 794 nM. Take `Cn1cc(-c2cnc3[nH]cc(-c4cccc(C#N)c4)c3c2)cn1` [NEU-0001207]: the IC50 is greater than 25100 nM.
